pEC50, pIC50: −log10 of the molar value. ≈ marks a conversion by molar mass, not a printed value.
How the values were obtained:
[1] = Aqueous solubility of the compound; assay type: physicochemical
Glucocorticoid receptor [2] = target: T1, Glucocorticoid receptor (Homo sapiens, UniProt P04150)
T1 sequence (P04150 whole entry): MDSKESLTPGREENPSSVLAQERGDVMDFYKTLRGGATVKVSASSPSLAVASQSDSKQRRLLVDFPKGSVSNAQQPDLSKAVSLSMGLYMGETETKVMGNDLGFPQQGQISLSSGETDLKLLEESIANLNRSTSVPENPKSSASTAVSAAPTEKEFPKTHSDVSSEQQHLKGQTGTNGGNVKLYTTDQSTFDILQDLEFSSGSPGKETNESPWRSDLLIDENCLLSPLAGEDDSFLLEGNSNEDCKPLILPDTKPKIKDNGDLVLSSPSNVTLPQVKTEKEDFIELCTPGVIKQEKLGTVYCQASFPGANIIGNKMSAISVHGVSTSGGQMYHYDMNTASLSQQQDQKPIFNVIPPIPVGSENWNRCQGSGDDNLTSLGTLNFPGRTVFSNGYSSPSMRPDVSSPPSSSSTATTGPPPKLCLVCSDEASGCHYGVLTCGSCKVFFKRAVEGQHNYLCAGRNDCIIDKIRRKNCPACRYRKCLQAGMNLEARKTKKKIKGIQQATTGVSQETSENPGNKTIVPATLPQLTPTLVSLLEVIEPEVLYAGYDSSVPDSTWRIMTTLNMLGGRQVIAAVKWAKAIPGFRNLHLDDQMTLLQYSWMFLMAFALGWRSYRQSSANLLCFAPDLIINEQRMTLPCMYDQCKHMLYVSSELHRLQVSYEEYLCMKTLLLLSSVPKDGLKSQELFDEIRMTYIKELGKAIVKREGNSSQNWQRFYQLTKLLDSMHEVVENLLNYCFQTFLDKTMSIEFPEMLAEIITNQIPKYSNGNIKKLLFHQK
Description: Transactivation activity at glucocorticoid receptor (unknown origin) expressed in human ChaGoK1 cells incubated for 24 hrs by beta-galactosidase reporter gene assay

Glucocorticoid receptor [3] = target: T1, Glucocorticoid receptor; remark: listed apart in the source
Description: (§1) Transrepression of GR in human whole blood assessed as inhibition of LPS-induced TNF-alpha release preincubated for 45 mins followed by LPS addition after 18 hrs by AlphaLISA method

Glucocorticoid receptor [4] = target: T1, Glucocorticoid receptor; assay: Antagonist activity at glucocorticoid receptor (unknown origin) expressed in human ChaGoK1 cells assessed as inhibition of dexamethasone induced transactivation incubated for 24 hrs by beta-galactosidase reporter gene assay; assay type: cell-based
Glucocorticoid receptor [5] = target: T1, Glucocorticoid receptor; assay: Displacement of fluormone RED from human full length glucocorticoid receptor after 4 hrs by fluorescence polarization assay
[6] = target: T2, Glucocorticoid receptor (Homo sapiens) (UniProt P04150)
T2 sequence (whole entry): T1 sequence (P04150 whole entry)
Description: as §1

[7] = target: T2, Glucocorticoid receptor (Homo sapiens); remark: listed apart in the source
Description: Transrepression of GR in cryopreserved human fetal osteoblasts assessed as inhibition of OPG mRNA expression after 4 hrs by RT-qPCR analysis

Glucocorticoid receptor [8] = target: T1, Glucocorticoid receptor; remark: listed apart in the source
Description: Transrepression activity at glucocorticoid receptor (unknown origin) expressed in human ChaGoK1 cells assessed as inhibition of PMA-stimulated gene expression incubated for 24 hrs by beta-galactosidase reporter gene assay

Glucocorticoid receptor [9] = target: T1, Glucocorticoid receptor; conditions: blood
Description: Therapeutic index, ratio of fIC20 for transrepression of GR in cryopreserved human fetal osteoblasts assessed as inhibition of OPG mRNA expression to fIC30 for transrepression of GR in human whole blood assessed as inhibition of LPS-induced TNF-alpha release

Glucocorticoid receptor [10] = target: T1, Glucocorticoid receptor; assay: Transactivation of GR in cryopreserved human primary hepatocytes assessed as upregulation of TAT mRNA expression level up to 1 uM after 18 hrs by RT-qPCR analysis
Hepatocyte [11] = assay: Stability in rat hepatocytes; assay type: ADME, cell-based
[12] = Intrinsic clearance in rat hepatocytes assessed per million cells; assay type: ADME, cell-based, Hepatocyte; conditions: read-out: CLH
[13] = Clearance in rat; assay type: ADME, organism-based; conditions: in vivo
Hepatocyte [14] = assay: Stability in human hepatocytes; assay type: ADME, cell-based
[15] = Drug metabolism in rat hepatocytes assessed as N-((1R,2S)-1-(3-chloro-4-cyanophenoxy)-1-(6-hydroxypyridin-3-yl)propan-2-yl)-2,2-difluoropropanamide formation; assay type: ADME, cell-based, Hepatocyte
[16] = Drug metabolism in human hepatocytes assessed as N-((1R,2S)-1-(3-chloro-4-cyanophenoxy)-1-(6-hydroxypyridin-3-yl)propan-2-yl)-2,2-difluoropropanamide formation; assay type: ADME, cell-based, Hepatocyte

Row | SMILES | solubility ([1]; aqueous, read-out: solubility) [µM] | pEC50 (Glucocorticoid receptor [2]) | pIC50 (Glucocorticoid receptor [4]) | pIC50 (Glucocorticoid receptor [5]) | pIC50 (Glucocorticoid receptor [8]) | other results
1 | Cc1ncccc1NC(=O)c1ccc2c(c1)CC[C@@H]1C[C@@](O)(C(F)(F)F)CC[C@@]21Cc1ccccc1 [DAGROCORAT] | 3.2 (≈ 1.58 µg/mL) | 8.32 | 8.05 | > 8.14 | 9.16 | pIC50 (Glucocorticoid receptor [3]): 7.46; fIC30 [6]: 2.3 nM; fIC20 [7]: 0.0667 nM; TI (Glucocorticoid receptor [9]): 0.029
2 | COc1ccc([C@@H](Oc2ccc3c(cnn3-c3ccc(F)cc3)c2)[C@H](C)NC(=O)C2CC2)cn1 | 1 (≈ 0.461 µg/mL) |  |  |  |  | 
3 | N#Cc1ccc(O[C@H](c2cnc(C3CC3)nc2)[C@H](CO)NC(=O)C(F)(F)F)c(Br)c1 | > 730 |  |  | 7.38 |  | 
4 | COc1ccc([C@@H](Oc2ccc3c(cnn3-c3ccc(F)cc3)c2)[C@@H](NC(=O)C(C)(F)F)C(C)C)cn1 | < 0.01 | 8.46 | 7.15 | 7.74 | 9.24 | 
5 | CC(C)[C@H](NC(=O)C(C)(F)F)[C@H](Oc1ccc2c(cnn2-c2cccn(C)c2=O)c1)c1ccccc1 | 160 (≈ 79.1 µg/mL) | 7.57 |  | 8.21 | 7.96 | 
6 | Cc1nnc(C(=O)N[C@@H](C(C)O)[C@H](Oc2ccc3c(cnn3-c3ccc(F)cc3)c2)c2cc(F)cc(F)c2)o1 (single isomer, unassigned) | 0.9 (≈ 0.484 µg/mL) | 8.46 | 6.57 | 7.80 | 8.80 | Activity (Glucocorticoid receptor [10]): Not Active; pIC50 (Glucocorticoid receptor [3]): 6.74; fIC30 [6]: 0.53 nM; fIC20 [7]: 0.04 nM; Stability (Hepatocyte [11]): Stable; TI (Glucocorticoid receptor [9]): 0.076
7 | CC(C)[C@H](NC(=O)C(F)(F)F)[C@H](Oc1ccc2c(cnn2-c2ccc(=O)n(C)c2)c1)c1cccc(Cl)c1 | 9.6 (≈ 5.12 µg/mL) | 8.25 | 6.94 | > 8.52 | 8.52 | pIC50 (Glucocorticoid receptor [3]): 6.38; fIC30 [6]: 1.6 nM; fIC20 [7]: 0.92 nM; TI (Glucocorticoid receptor [9]): 0.58
8 | CC[C@H](NC(=O)C(C)(F)F)[C@H](Oc1ccc2c(cnn2-c2ccc(=O)n(C)c2)c1)c1ccccc1 | 51 (≈ 24.5 µg/mL) |  |  |  |  | 
9 | Cn1cc(-n2ncc3cc(O[C@H](c4ccccc4)[C@H](CC4CC4)NC(=O)C(C)(F)F)ccc32)ccc1=O | 20 (≈ 10.1 µg/mL) |  |  |  |  | 
10 | CC(C)[C@H](NC(=O)C(C)(F)F)[C@H](Oc1ccc2c(cnn2-c2ccns2)c1)c1ccccc1 | 0.96 (≈ 0.452 µg/mL) |  |  |  | 7.41 | 
11 | CCS(=O)(=O)c1cc2cc(C[C@](O)(CC(C)(C)c3ccc(F)cc3C(N)=O)C(F)(F)F)[nH]c2cn1 [BI 653048] |  |  |  |  |  | solubility ([1]; buffer): 160 µM (≈ 82.5 µg/mL)
12 | COc1ccc([C@@H](Oc2ccc(C#N)cc2Cl)[C@H](C)NC(=O)C(C)(F)F)cn1 | 85 (≈ 34.8 µg/mL) | 7.37 |  | 8.15 | 7.80 | hepatocyte CLint [12]: 93 µL/min/1e6 cells; clearance [13]: 22 mL/min/kg
13 | CC(C)[C@H](NC(=O)C(C)(F)F)[C@H](Oc1ccc2c(cnn2-c2ccc(F)cc2)c1)c1ccccc1 | < 0.08 | 8.41 | 7.89 | > 7.85 | > 9.47 | 
14 | CC[C@H](NC(=O)C(F)(F)F)[C@H](Oc1ccc(C#N)cc1Br)c1cnc(C2CC2)nc1 | 110 (≈ 53.2 µg/mL) | 7.27 | 6.25 | 8.03 | 8.02 | Stability (Hepatocyte [14]): Stable; Stability (Hepatocyte [11]): Stable
15 | CC(O)[C@H](NC(=O)C(C)(F)F)[C@H](Oc1ccc2c(cnn2-c2ccc(=O)n(C)c2)c1)c1ccccc1 (some centres not stated) | 250 (≈ 124 µg/mL) |  |  |  |  | 
16 | CC(C)[C@H](NC(=O)C(C)(F)F)[C@H](Oc1ccc2c(cnn2-c2ccc(=O)n(C)c2)c1)c1cc(F)cc(F)c1 | 21 (≈ 11.1 µg/mL) | 8.57 | 7.64 | 8.33 | 8.66 | pIC50 (Glucocorticoid receptor [3]): 6.92; fIC30 [6]: 0.7 nM; fIC20 [7]: 0.12 nM; TI (Glucocorticoid receptor [9]): 0.17
17 | COc1ccc([C@@H](Oc2ccc(C#N)c(Cl)c2)[C@H](C)NC(=O)C(C)(F)F)cn1 | 100 (≈ 41 µg/mL) | 7.48 |  | > 8.40 | 8.03 | Drug metabolism [15]: Metabolite_Detected; Drug metabolism [16]: Metabolite_Detected
18 | CC(C)[C@H](NC(=O)C(C)(F)F)[C@H](Oc1ccc2c(cnn2-c2cscn2)c1)c1ccccc1 | 5.8 (≈ 2.73 µg/mL) | 7.54 | 6.88 | 7.28 | 8.48 | 

Row | SMILES | solubility ([1]; aqueous, read-out: solubility) [µM] | pEC50 (Glucocorticoid receptor [2]) | pIC50 (Glucocorticoid receptor [4]) | pIC50 (Glucocorticoid receptor [5]) | pIC50 (Glucocorticoid receptor [8]) | other results
19 | C[C@H](NC(=O)C(C)(F)F)[C@H](Oc1ccc2c(cnn2-c2ccc(=O)n(C)c2)c1)c1ccccc1 | 140 (≈ 65.3 µg/mL) | 8.64 |  |  | 8.80 | 
20 | C[C@H](NC(=O)C(C)(F)F)[C@H](Oc1ccc(C#N)cc1Cl)c1cnc(C2CC2)nc1 | 430 (≈ 181 µg/mL) | 7.68 |  | > 8.39 | 8.11 | hepatocyte CLint [12]: 3.4 µL/min/1e6 cells; clearance [13]: 7.3 mL/min/kg
21 | CC(C)[C@H](NC(=O)C(C)(F)F)[C@H](Oc1ccc2c(cnn2-c2cnc(=O)n(C)c2)c1)c1ccccc1 | 5.1 (≈ 2.53 µg/mL) | 7.06 |  |  | 7.29 | 
22 | CC#C[C@]1(O)CC[C@H]2[C@@H]3CCC4=CC(=O)CCC4=C3[C@@H](c3ccc(N(C)C)cc3)C[C@@]21C [MIFEPRISTONE] | 6.9 (≈ 2.96 µg/mL) |  |  |  |  | 
23 | COc1ccc([C@@H](Oc2ccc3c(cnn3-c3ccc(F)cc3)c2)[C@H](Cc2ccccc2)NC(=O)C(C)(F)F)cn1 | < 0.1 | 8.06 | 7.04 | 7.49 | 8.70 | 
24 | Cn1cc(-n2ncc3cc(O[C@H](c4ccccc4)[C@@H](NC(=O)C(C)(F)F)C4CC4)ccc32)ccc1=O | 48 (≈ 23.6 µg/mL) |  |  |  |  | 
25 | C[C@H](NC(=O)C(F)(F)F)[C@H](Oc1ccc(C#N)cc1Br)c1cnc(C2CC2)nc1 | 97 (≈ 45.5 µg/mL) | 7.64 |  | 8.62 | 8.60 | Stability (Hepatocyte [14]): Stable; Stability (Hepatocyte [11]): Stable
26 | COc1ccc(-n2ncc3cc(O[C@H](c4ccccc4)[C@@H](NC(=O)C(C)(F)F)C(C)C)ccc32)cn1 | < 0.5 |  |  | 7.24 |  | 
27 | COc1ccc([C@@H](Oc2ccc(C#N)cc2)[C@H](C)NC(=O)C(C)(F)F)cn1 | 290 (≈ 109 µg/mL) |  |  | > 8.17 | 7.15 | 
28 | CC(C)(C)OC[C@H](NC(=O)C(F)(F)F)[C@H](Oc1ccc(C#N)cc1Br)c1cnc(C2CC2)nc1 | 18 (≈ 9.74 µg/mL) |  | 6.29 | 6.80 |  | Stability (Hepatocyte [14]): Stable; Stability (Hepatocyte [11]): Stable
29 | N#Cc1ccc(O[C@H](c2cnc(C3CC3)nc2)[C@@H](NC(=O)C(F)(F)F)C2CC2)c(Br)c1 | 86 (≈ 42.6 µg/mL) |  | 6.66 | 7.85 | 7.68 | pIC50 (Glucocorticoid receptor [3]): 6.47; Stability (Hepatocyte [14]): Stable; fIC30 [6]: 36 nM; fIC20 [7]: 0.5 nM; Stability (Hepatocyte [11]): Stable; TI (Glucocorticoid receptor [9]): 0.014
30 | CC(C)[C@H](NC(=O)C(C)(F)F)[C@H](Oc1ccc2c(cnn2-c2cc(C#N)c(=O)n(C)c2)c1)c1ccccc1 | 11 (≈ 5.72 µg/mL) | 6.96 |  | 8.14 | 7.57 | 
31 | CCC[C@H](NC(=O)C(C)(F)F)[C@H](Oc1ccc2c(cnn2-c2ccc(=O)n(C)c2)c1)c1ccccc1 | 22 (≈ 10.9 µg/mL) |  |  |  |  | 
32 | C[C@H](NC(=O)C(C)(F)F)[C@H](Oc1ccc(C#N)cc1Br)c1cnc(C2CC2)nc1 | 110 (≈ 51.2 µg/mL) | 8.19 |  | 8.62 | 8.96 | Stability (Hepatocyte [14]): Stable; Stability (Hepatocyte [11]): Stable
33 | CC(C)[C@H](NC(=O)C(F)(F)F)[C@H](Oc1ccc2c(cnn2-c2ccc(F)cc2)c1)c1ccccc1 | < 0.1 | 8.27 | 7.60 | 7.80 | > 9.38 | 
34 | CC(C)[C@H](NC(=O)C(C)(F)F)[C@H](Oc1ccc2c(cnn2-c2cc(F)c(=O)n(C)c2)c1)c1ccccc1 | 14 (≈ 7.18 µg/mL) | 7.74 | 6.52 | > 8.49 | 8.25 | 
35 | COc1ccc([C@@H](Oc2ccc3c(cnn3-c3ccc(F)cc3)c2)[C@H](COC(C)(C)C)NC(=O)C(C)(F)F)cn1 | < 0.01 |  |  |  |  | 
36 | CC(C)[C@H](NC(=O)C(C)(F)F)[C@H](Oc1ccc2c(cnn2-c2ccc(=O)n(C)c2)c1)c1cccc(Cl)c1 | 10 (≈ 5.29 µg/mL) | 8.54 | 6.49 | 8.59 | 8.77 | 
